The text below walks through data of patent publication US20160002667A1, “PSEUDOMONAS EXOTOXINS FOR CANCER TREATMENT” (RUSH UNIVERSITY MEDICAL CENTER, priority 2013, published 2016).

Series [1] relates to 4T1 metastatic breast cancer cells. Type of series: cell-based. As to conditions: cisplatin 50 uM, PI fluorescence. Here is the method:
The cell death stain propidium iodide (PI) was added and the cells were observed by time-lapse videomicroscopy. Cytotoxicity was determined by measuring the PI fluorescence intensity at each time point using ImageJ (NIH).
Cells were observed by time-lapse videomicroscopy in the presence of the cell death dye propidium iodide.

The subject of series [2] is various cancer cell lines. In words: Propidium iodide time-lapse cytotoxicity / mean time to death in various cancer cell lines infected with P. aeruginosa expressing exotoxin. Type of series: cell-based. The settings on record: listed cancer cell lines, FIG. 4. Here is the method: FIG. 4 is a table summarizing the effect of Pseudomonas exotoxins on various cancer cell lines. Pseudomonas exotoxins are able to kill a variety of cancer cell lines. Listed cell lines were infected with Pseudomonas aeruginosa expressing either ExoU, ExoS, or ExoT in the presence of the cell death dye propidium iodide and observed by time-lapse videomicroscopy. Based on PI staining analysis, the mean time to death was determined for each cell line. […] (ND: no death).
For example, ExoU kills 100% of highly metastatic breast cancer cell line 4T1 within 2-3 hours, as indicated by propidium iodide (PI) staining (red) in FIG. 1.

Series [3] has as its system B16 cells. In words: Cell motility tracking by time-lapse video microscopy. Type of series: cell-based. The settings on record: tracked over a 10 h period, versus GFP transfected cells. Here is the method:
B16 cells were transfected with ExoT, the GAP or ADPRT domain mutants or GFP vector alone. Cells were observed by time-lapse video microscopy and tracked over a 10 h period using ImageJ (NIH). The mean track length during this time is shown. […] Importantly, ExoT could have an impact on reducing metastasis of cancer cells.

Series [4] has as its system HeLa cells. In words: Apoptosis and apoptotic compensatory proliferation signaling. Type of series: cell-based. The source says: It has long been postulated that dying cells induce compensatory proliferation in neighboring cells as a means to control homeostasis and maintain tissue integrity but the players and the mechanisms involved in the compensatory proliferation signaling have remained unknown.

The conditions of series [5]: synthetic substrate; cited from earlier work.
In series [6] the test system is A375 melanoma cells. In words: Proliferation by phase time-lapse videomicroscopy after transfection. The class given is cell-based.
In series [7] the test system is A375 cells. Type of series: cell-based. The settings on record: versus GAP domain alone, GAP/ADPRT double mutant or GFP alone. The protocol: B16 and A375 cells were transfected with either GFP-fused ExoT, GAP and/or ADPRT domain mutants or GFP vector alone. Cytotoxicty was determined by positive propidium iodide staining.
We also discovered that ExoT is effective in killing the melanoma cell lines B16 and A375. B16 cells shown here were transfected with either a GFP expressing vector or ExoT directly fused to GFP. Cells were imaged in the presence of the cell death dye propidium iodide and observed by time-lapse videomicroscopy.

The test system of series [8] is A375 cells. Description: Mitotic events by time-lapse video microscopy after transfection. Type of series: cell-based. As to conditions: vector alone ~33%. The source says:
A375 cells were transfected with ExoT, the GAP or ADPRT domain mutants or GFP vector alone. Cells were observed by time-lapse video microscopy. The number of mitotic events per cells in each field of view was counted.

Series [9] has as its system cancer cells that are resistant to its cytotoxicity. In words: G1 cell cycle arrest in cancer cells resistant to ExoT cytotoxicity. The class given is cell-based. As to conditions: all cancer cells examined that are resistant to ExoT cytotoxicity. The source says: (v) Exotoxin T is also a potent anti-proliferative agent. […] This feature can be quite useful in combination therapy.

Series [10] relates to Rho, Rac, and Cdc42. The settings on record: cited from earlier work.

On to ExoS, for which the “cytotoxicity compared with cisplatin” value in series [1] is “more potent cytotoxicity than cisplatin”. Further, the “speed of killing and potency (mean time to death by PI staining)” value in series [2] is “fastest killing and greatest potentcy”.
On to ExoT, for which the mean track length result in series [3] is given as “significantly shorter track lengths”. Besides, the apoptosis entry in series [4] (HeLa) is given as “induces potent apoptosis”. The “formation of compensatory complexes and induction of proliferation in surrounding cells” value in series [4] (apoptotic HeLa cells) was “interferes with the ability of apoptotic HeLa cells to form compensatory complexes and induce proliferation in the surrounding cells”. For the same substance, the “cytotoxicity compared with cisplatin” value in series [1] was “more potent cytotoxicity than cisplatin”. Moreover, in series [5], the “ADPRT activity in vitro compared to ExoS” value was 0.2%. In addition, the cell division entry in series [6] was “blocked cell division”. Moreover, the “cytotoxicity (positive propidium iodide staining)” value in [7] is given as “significantly greater cytotoxicity”. Besides, in series [8], the mitotic cells entry was “complete block of mitotic cells”. In addition, in series [2], the “speed of killing and potency (mean time to death by PI staining)” value is “less potent and unable to kill some cell lines”. The cell cycle arrest entry in series [9] is “complete G1cell cycle arrest”.
“R149K: ExoT with the invariant arginine of the GAP domain mutated to lysine”: in series [10], the “GAP activity in vitro” value is reported as “complete loss of GAP activity”.
